Measured values published in patent publication US10590276B2, “Aqueous suspension of inorganic particulate material” (ImerTech SAS, priority 2013, dated 2020).

What was measured:
[1] = pH of calcium carbonate slurry after sequential 50 mg/kg additions (Example 2); type: physicochemical; details: for δ pH: change per 50 mg/kg aliquot
From the text: The pH of the aqueous suspension may be measured using any conventional pH meter. For example, the pH of the aqueous suspension may be measured using the Digital pH meter “Mettler Toledo FE20”, which has been calibrated in accordance with the manufacturer's instructions, using buffer solutions with nominal values of 4, 7 and 9. This may be carried out using either a manual or automatic method, depending on the type of instrument being used.
(§1) The pH of the aqueous suspension may be measured by: • mixing a sample of the aqueous suspension to ensure homogeneity, by using either the bench stirrer or the rotating rollers, or by shaking the sample container and contents vigorously; • measuring the temperature of the sample and adjusting the temperature to 22° C.; • removing the pH electrode from its deionised water storage solution and immersing it carefully into the test slurry; • waiting until a stable pH reading is obtained; • recording the pH value of the undisturbed slurry. Viscosity
50 mg/kg aliquots of either AMP or DMEA were sequentially added to 250 g calcium carbonate slurry samples having 78 wt % solids and 60% of particles less than 2 μm in size (measured using a micrometrics sedigraph). In this context, 50 mg/kg means that 50 mg of AMP or DMEA was added per kg of dry inorganic particulate material in the aqueous suspension. The pH of the samples was measured after stirring immediately after each 50 mg/kg addition.

[2] = pH recovery of calcium carbonate slurry after lowering to pH 8 with CO2 enriched air (Example 1); type: physicochemical
From the text: The pH of the aqueous suspension may be measured using any conventional pH meter. […] This may be carried out using either a manual or automatic method, depending on the type of instrument being used.
as §1
1 kg samples of a calcium carbonate slurry having 78 wt % solids and 60% of particles less than 2 μm in size (measured using a micrometrics sedigraph) were adjusted to […] at room temperature using 2-amino-2-methyl-1-propanol (AMP) or dimethylethanolamine (DMEA). The control sample was adjusted to pH 10 using dilute sodium hydroxide solution. The solids content of the samples was adjusted using deionised water.
The pH of each slurry was lowered to pH 8 by aspirating the sample with carbon dioxide (CO2) enriched air (2%) using a flow rate of 5 mL/min. When pH 8 had been reached, aspiration of the sample was stopped.
Recovery of the sample pH was then monitored and recorded over subsequent days using the Mettler Toledo FE20 pH meter as described above in the detailed description.

CC(C)(N)CO [AMP, 2-amino-2-methyl-1-propanol, reference compound]
δ pH ([1]; total 50 mg/kg added): 0.27 | pH of sample ([1]; total 50 mg/kg of chemical added): 9.28 | δ pH ([1]; total 100 mg/kg added): 0.21 | pH of sample ([1]; total 100 mg/kg of chemical added): 9.49 | δ pH ([1]; total 150 mg/kg added): 0.15 | pH of sample ([1]; total 150 mg/kg of chemical added): 9.64 | δ pH ([1]; total 200 mg/kg added): 0.14 | pH of sample ([1]; total 200 mg/kg of chemical added): 9.78 | δ pH ([1]; total 250 mg/kg added): 0.14 | pH of sample ([1]; total 250 mg/kg of chemical added): 9.92 | δ pH ([1]; total 300 mg/kg added): 0.09 | pH of sample ([1]; total 300 mg/kg of chemical added): 10.01 | δ pH ([1]; total 350 mg/kg added): 0.07 | pH of sample ([1]; total 350 mg/kg of chemical added): 10.08 | δ pH ([1]; total 400 mg/kg added): 0.07 | pH of sample ([1]; total 400 mg/kg of chemical added): 10.15 | δ pH ([1]; total 450 mg/kg added): 0.07 | pH of sample ([1]; total 450 mg/kg of chemical added): 10.22 | δ pH ([1]; total 500 mg/kg added): 0.05 | pH of sample ([1]; total 500 mg/kg of chemical added): 10.27 | δ pH ([1]; total 550 mg/kg added): 0.05 | pH of sample ([1]; total 550 mg/kg of chemical added): 10.32 | δ pH ([1]; total 600 mg/kg added): 0.05 | pH of sample ([1]; total 600 mg/kg of chemical added): 10.37 | pH of sample ([2]; day 0, before CO2 aspiration): 9.50 | δ pH ([2]; day 0.5): 0.00 | pH of sample ([2]; day 0.5, lowered to pH 8 with CO2): 8.00 | pH of sample ([2]; day 1): 8.16 | δ pH ([2]; day 1): 0.13 | pH of sample ([2]; day 2): 8.26 | δ pH ([2]; day 2): 0.23 | pH of sample ([2]; day 16): 8.46 | δ pH ([2]; day 16): 0.43 | pH of sample ([2]; day 20): 8.50 | δ pH ([2]; day 20): 0.47 | pH of sample ([2]; day 23): 8.52 | δ pH ([2]; day 23): 0.49 | pH of sample ([2]; day 24): 8.58 | δ pH ([2]; day 24): 0.55 | pH of sample ([2]; day 27): 8.61 | δ pH ([2]; day 27): 0.58 | pH of sample ([2]; day 28): 8.66 | δ pH ([2]; day 28): 0.66
